Experimental findings from EP4741392A1, “1H-PYRAZOLO[4,3-C]PYRIDINE COMPOUND, AND COMPOSITION THEREOF AND USE THEREOF” (Shenzhen TargetRx Co., Ltd., priority 2023, dated 2025) are described below.

The structures appear in SMILES notation.

In the assay the test system is Ba/F3-ETV6-BTK-T474I cells. In words: Viability assay of Ba/F3-ETV6-BTK-T474I cells (CTG). In kind it is cell-based. The conditions noted are these: Mus musculus, BaF3, cell viability, 72 hours. The protocol: The in vitro antiproliferative activity of the compounds of the present disclosure against Ba/F3-ETV6-BTK-T474I cells was assayed using CTG luminescent cell viability assay. The specific assay methods were as follows: • a) Ba/F3-ETV6-BTK-T474I cells were cultured at 37 °C and 5% CO2 in complete medium [RPMI 1640 (supplier Gibco, product number 22400-089) + 10% FBS (supplier Gibco, product number 10091-148)]. • b) Cells in the logarithmic growth phase were harvested, and cell counting was performed using a […]. Trypan blue exclusion test was used to determine the cell viability, ensuring that the cell viability was above 90%. • c) Cell density was adjusted using complete culture medium. Then, the cells were inoculated at 90 µL, a total of 3000 cells per well in a 96-well cell culture plate (supplier: Shanghai Jing An Biotechnology Co., Ltd., product number J09601). • d) The cells in the 96-well plate were cultured at 37 °C and 5% CO2. • e) A 10-fold drug solution was prepared, and then 10 µL of each serially diluted compound was transferred to the corresponding assay wells of the 96-well cell plate so that the final assay concentration was 1000 nM, with 9 concentrations, 3.16-fold dilutions, and triplicates for each drug concentration. • f) The cells in the 96-well plate with the drug added were cultured at 37 °C and 5% CO2 for another 72 hours. Then, CTG analysis was performed. • g) The CTG reagent was melted, and the cell plate was equilibrated at room temperature for 30 minutes. • h) An equal volume of CTG solution was added to each well. • i) The plate was shaken on an orbital shaker for 5 minutes to lyse the cells. • j) The cell plate was placed at room temperature for 20 minutes to stabilize the luminescent signal. • k) The luminescent signal values were read and the data were collected.
The data were analyzed using GraphPad Prism 7.0 software. Nonlinear S-curve regression was used to fit the data to give a dose-response curve, from which the IC50 values were calculated. [formula]

What is called IC50 is the point on the concentration scale where inhibition reaches its midpoint. Read a low IC50 as higher potency.

Regarding `COc1ccc(F)cc1C(=O)NCc1ccc(-c2ncc(-c3ccc(C)cn3)c3[nH]nc(N)c23)cc1` [Example 37, N-(4-(3-amino-7-(5-methylpyridin-2-yl)-1H-pyrazolo[4,3-c]pyridin-4-yl)benzyl)-5-fluoro-2-methoxybenzamide], the IC50 fell in the range of 10 to 50 nM. Turning to `COc1ccc(F)cc1C(=O)NCc1ccc(-c2ncc(-c3ccc(C4COC4)cn3)c3[nH]nc(N)c23)cc1` [Example 43, N-(4-(3-amino-7-(5-(oxetan-3-yl)pyridin-2-yl)-1H-pyrazolo[4,3-c]pyridin-4-yl)benzyl)-5-fluoro-2-methoxybenzamide], the IC50 lay in the range of 5 to 10 nM. `COc1ccc(F)cc1C(=O)NCc1ccc(-c2ncc(-c3cc4ncccn4n3)c3[nH]nc(N)c23)cc1` [Example 44, N-(4-(3-amino-7-(pyrazolo[1,5-a]pyrimidin-2-yl)-1H-pyrazolo[4,3-c]pyridin-4-yl)benzyl)-5-fluoro-2-methoxybenzamide] displayed an IC50 of 5 to 10 nM. On to `COc1ccc(F)cc1C(=O)NCc1ccc(-c2ncc(-c3ccn4nccc4n3)c3[nH]nc(N)c23)cc1` [Example 46, N-(4-(3-amino-7-(pyrazolo[1,5-a]pyrimidin-5-yl)-1H-pyrazolo[4,3-c]pyridin-4-yl)benzyl)-5-fluoro-2-methoxybenzamide], for which the concentration for half-maximal inhibition (IC50) was over 50 nM. Molecule `COc1ccc(F)cc1C(=O)NCc1ccc(-c2ncc(-c3ccc(C(=O)N4CCOCC4)cn3)c3[nH]nc(N)c23)cc1` [Example 52, N-(4-(3-amino-7-(5-(morpholine-4-carbonyl)pyridin-2-yl)-1H-pyrazolo[4,3-c]pyridin-4-yl)benzyl)-5-fluoro-2-methoxybenzamide] returned an IC50 of at most 5 nM. Molecule `COc1ccc(F)cc1C(=O)NCc1ccc(-c2ncc(-c3ccc(C(=O)N4C[C@H](C)O[C@@H](C)C4)cn3)c3[nH]nc(N)c23)cc1` [Example 53, N-(4-(3-amino-7-(5-((2S,6S)-2,6-dimethylmorpholine-4-carbonyl)pyridin-2-yl)-1H-pyrazolo[4,3-c]pyridin-4-yl)benzyl)-5-fluoro-2-methoxybenzamide] came in with an IC50 of at most 5 nM.

In turn, `COCCOc1ccc(-c2cnc(-c3ccc(CNC(=O)c4cc(F)ccc4OC)cc3)c3c(N)n[nH]c23)nc1` [Example 59, N-(4-(3-amino-7-(5-(2-methoxyethoxy)pyridin-2-yl)-1H-pyrazolo[4,3-c]pyridin-4-yl)benzyl)-5-fluoro-2-methoxybenzamide] yielded an IC50 of 5 to 10 nM.

For the molecule `COc1ccc(F)cc1C(=O)NCc1ccc(-c2ncc(-c3ccc(OCCN(C)C)cn3)c3[nH]nc(N)c23)cc1` [Example 60, N-(4-(3-amino-7-(5-(2-(dimethylamino)ethoxy)pyridin-2-yl)-1H-pyrazolo[4,3-c]pyridin-4-yl)benzyl)-5-fluoro-2-methoxybenzamide], the IC50 was 5 to 10 nM. With `COc1ccc(F)cc1C(=O)NCc1ccc(-c2ncc(-c3ccc(OCCN4CCOCC4)cn3)c3[nH]nc(N)c23)cc1` [Example 61, N-(4-(3-amino-7-(5-(2-morpholinoethoxy)pyridin-2-yl)-1H-pyrazolo[4,3-c]pyridin-4-yl)benzyl)-5-fluoro-2-methoxybenzamide] the figure was at most 5 nM; with `COc1ccc(F)cc1C(=O)NCc1ccc(-c2ncc(-c3ccc(OCCN4CCCC4)cn3)c3[nH]nc(N)c23)cc1` [Example 62, N-(4-(3-amino-7-(5-(2-(pyrrolidin-1-yl)ethoxy)pyridin-2-yl)-1H-pyrazolo[4,3-c]pyridin-4-yl)benzyl)-5-fluoro-2-methoxybenzamide], 10 to 50 nM. With `COc1ccc(F)cc1C(=O)NCc1ccc(-c2ncc(-c3ccc(C(C)(C)O)cn3)c3[nH]nc(N)c23)cc1` [Example 65, N-(4-(3-amino-7-(5-(2-hydroxypropan-2-yl)pyridin-2-yl)-1H-pyrazolo[4,3-c]pyridin-4-yl)benzyl)-5-fluoro-2-methoxybenzamide] the figure was at most 5 nM; with `COc1ccc(F)cc1C(=O)NCc1ccc(-c2ncc(-c3ccc(CN4CCCCC4)cn3)c3[nH]nc(N)c23)cc1` [Example 66, N-(4-(3-amino-7-(5-(piperidin-1-ylmethyl)pyridin-2-yl)-1H-pyrazolo[4,3-c]pyridin-4-yl)benzyl)-5-fluoro-2-methoxybenzamide], at most 5 nM. Molecule `COc1ccc(F)cc1C(=O)NCc1ccc(-c2ncc(-c3ccc(CN4CCOCC4)cn3)c3[nH]nc(N)c23)cc1` [Example 67, N-(4-(3-amino-7-(5-(morpholinomethyl)pyridin-2-yl)-1H-pyrazolo[4,3-c]pyridin-4-yl)benzyl)-5-fluoro-2-methoxybenzamide] showed an IC50 of at most 5 nM. With `COc1ccc(F)cc1C(=O)NCc1ccc(-c2ncc(-c3ccc(CN4CCN(C)CC4)cn3)c3[nH]nc(N)c23)cc1` [Example 68, N-(4-(3-amino-7-(5-((4-methylpiperazin-1-yl)methyl)pyridin-2-yl)-1H-pyrazolo[4,3-c]pyridin-4-yl)benzyl)-5-fluoro-2-methoxybenzamide] the figure was at most 5 nM; with `COc1ccc(F)cc1C(=O)NCc1ccc(-c2ncc(-c3cc4ccccn4n3)c3[nH]nc(N)c23)cc1` [Example 69, N-(4-(3-amino-7-(pyrazolo[1,5-a]pyridin-2-yl)-1H-pyrazolo[4,3-c]pyridin-4-yl)benzyl)-5-fluoro-2-methoxybenzamide], 10 to 50 nM. `COc1ccc(F)cc1C(=O)NCc1ccc(-c2ncc(-c3cc4n(n3)CCN(C)C4)c3[nH]nc(N)c23)cc1` [Example 71, N-(4-(3-amino-7-(5-methyl-4,5,6,7-tetrahydropyrazolo[1,5-a]pyrazin-2-yl)-1H-pyrazolo[4,3-c]pyridin-4-yl)benzyl)-5-fluoro-2-methoxybenzamide] gave an IC50 of 5 to 10 nM.

Regarding `CCN1CCn2nc(-c3cnc(-c4ccc(CNC(=O)c5cc(F)ccc5OC)cc4)c4c(N)n[nH]c34)cc2C1` [Example 72, N-(4-(3-amino-7-(5-ethyl-4,5,6,7-tetrahydropyrazolo[1,5-a]pyrazin-2-yl)-1H-pyrazolo[4,3-c]pyridin-4-yl)benzyl)-5-fluoro-2-methoxybenzamide], the IC50 fell in the range of 5 to 10 nM. For the molecule `COc1ccc(F)cc1C(=O)NCc1ccc(-c2ncc(-c3ccc(N4CCN(C)C[C@@H]4C)cn3)c3[nH]nc(N)c23)cc1` [Example 74, (S)-N-(-4-(3-amino-7-(5-(2,4-dimethylpiperazin-1-yl)pyridin-2-yl) 1H-pyrazolo[4,3-c]pyridin-4-yl)benzyl)-5-fluoro-2-methoxybenzamide], the IC50 was at most 5 nM. With `COc1ccc(F)cc1C(=O)NCc1ccc(-c2ncc(-c3ccc(N4CCN(C)C[C@H]4C)cn3)c3[nH]nc(N)c23)cc1` [Example 75, (R)-N-(-4-(3-amino-7-(5-(2,4-dimethylpiperazin-1-yl)pyridin-2-yl) 1H-pyrazolo[4,3-c]pyridin-4-yl)benzyl)-5-fluoro-2-methoxybenzamide] the figure was at most 5 nM. With `COc1ccc(F)cc1C(=O)NCc1ccc(-c2ncc(-c3ccc(N4CCOCC4)cn3)c3[nH]nc(N)c23)cc1` [Example 76, N-(4-(3-amino-7-(5-morpholinopyridin-2-yl)-1H-pyrazolo[4,3-c]pyridin-4-yl)benzyl)-5-fluoro-2-methoxybenzamide] the figure was at most 5 nM. `COc1ccc(F)cc1C(=O)NCc1ccc(-c2nc(C3CCOCC3)cc3[nH]nc(N)c23)cc1` [Example 115, N-(4-(3-amino-6-(tetrahydro-2H-pyran-4-yl)-1H-pyrazolo[4,3-c]pyridin-4-yl)benzyl)-5-fluoro-2-methoxybenzamide]: the IC50 was over 50 nM.
